Values of other authors, collected in US20180071205A1, “Stable Vitamin C System” (priority 2014, published 2018).

Experiments:
[1] = aqueous solutions; accelerated by alkalines, iron and copper; sodium salt at pH >6
[2] = normal water-based preparation

stability to oxidation by air [1]: rapidly oxidized by air
pH [2]: around 2
Structure (SMILES): O=C1O[C@H]([C@@H](O)CO)C(O)=C1O [L-ascorbic acid]
